Data from ChEMBL document CHEMBL1201862, “PubChem BioAssay data set” (2004).
Active and inactive are the calls of the source.

Tests used:
[1] = bead-based luminescence quenchers, dual-tagged ARNT – biochemical, AlphaScreen, cherry-pick, artefact control for ARNT-TACC3 interaction inhibitor project, dose response (AID 651705); type: functional;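 also: AlphaScreen bead proximity signal that flags compounds interfering with the detection technology; potency reflects signal decrease which marks the compound as an assay artifact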
[2] = molecular target: Fructose-bisphosphate aldolase (Mycobacterium tuberculosis, UniProt P9WQA3); test: Fluorescence-based biochemical high throughput dose response assay for inhibitors of the fructose-bisphosphate aldolase (FBA) of M. tuberculosis.; type: functional
[3] = molecular target: T1, High affinity choline transporter 1 (Homo sapiens, UniProt Q9GZV3); test: human choline transporter blockers, potency – cell-based, 5-point CRC, membrane potential dye, dose response (AID 504840); type: functional
T1 sequence (Q9GZV3 whole entry): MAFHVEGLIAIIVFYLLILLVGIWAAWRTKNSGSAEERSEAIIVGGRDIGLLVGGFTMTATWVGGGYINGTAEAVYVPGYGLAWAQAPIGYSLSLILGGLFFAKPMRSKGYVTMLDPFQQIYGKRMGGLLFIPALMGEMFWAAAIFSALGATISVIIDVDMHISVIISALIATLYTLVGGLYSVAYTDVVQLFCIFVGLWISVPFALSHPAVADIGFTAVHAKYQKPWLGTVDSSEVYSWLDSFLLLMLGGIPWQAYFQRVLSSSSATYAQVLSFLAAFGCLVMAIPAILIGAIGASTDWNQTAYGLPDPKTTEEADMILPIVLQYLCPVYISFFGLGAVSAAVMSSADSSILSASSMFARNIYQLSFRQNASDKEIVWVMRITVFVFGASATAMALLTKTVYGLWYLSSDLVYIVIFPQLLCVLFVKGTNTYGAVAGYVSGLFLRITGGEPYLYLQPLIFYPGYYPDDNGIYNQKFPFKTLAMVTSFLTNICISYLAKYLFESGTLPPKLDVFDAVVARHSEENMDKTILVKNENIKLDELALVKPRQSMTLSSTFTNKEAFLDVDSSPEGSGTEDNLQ

[4] = molecular target: T1, High affinity choline transporter 1; test: human choline transporter blockers, potency – cell-based, 10-point CRC, membrane potential dye, dose response (AID 588401); type: functional;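 also: membrane potential dye fluorescence of choline-evoked depolarization via CHT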
[5] = molecular target: T1, High affinity choline transporter 1; test: human choline transporter radiolabel uptake blockers – cell-based, 3H-choline uptake, CHT LV-AA trafficking mutant, CRC, dose response (AID 602208); type: functional
[6] = cells; type: functional, cell-based
[7] = cells; type: functional, cell-based; remark: listed apart in the source
[8] = tested on: HEK293; test: inhibition of NOD1-driven NF-kB reporter – cell-based, luminescence, uHTS, primary screen (AID 1578); type: functional; settings: Homo sapiens
[9] = tested on: HEK293; test: cells; type: functional, cell-based; settings: Homo sapiens
[10] = tested on: HEK293; test: cells; type: functional, cell-based; settings: Homo sapiens; remark: listed apart in the source
[11] = molecular target: Nucleotide-binding oligomerization domain-containing protein 2 (Homo sapiens, UniProt Q9HC29); test: inhibition of NOD2-driven NF-kB reporter – cell-based, luminescence, uHTS, HEK293 (AID 1566); type: functional
[12] = tested on: HEK293; test: cells; type: functional, cell-based; settings: Homo sapiens; remark: listed apart in the source
[13] = reduction of Shn3 3'UTR-driven luciferase in osteoblasts – cell-based, Clone20 osteoblasts, firefly luciferase, cherry-picked, dose response (AID 624132); type: functional;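 also: firefly luciferase luminescence from reporter carrying the Shn3 3'UTR in osteoblasts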
[14] = loss of viability in HepG2 cells – cell-based, CellTiter-Glo, cherry-picked, cytotoxicity control for Shn3 inhibitor project, dose response (AID 624134); type: functional
[15] = non-specific 3'UTR reporter inhibition in Clone20-Shn3RL – cell-based, Renilla luciferase, cherry-picked, counter-screen for Shn3 inhibitor project, dose response (AID 624133); type: functional
[16] = molecular target: Protein Wnt-3a (Mus musculus, UniProt P27467); test: antagonism of Wnt3a pathway luciferase reporter – Wnt-LIGHT cells, luminescence, selectivity assay for Gli-SUFU antagonist project, dose response (AID 651570); type: functional; settings: read-out: IC50_Mean;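 also: Wnt-LIGHT reporter cells stimulated with conditioned medium from Wnt3a-producing cells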
[17] = molecular target: T2, Ubiquitin-conjugating enzyme E2 N (Homo sapiens, UniProt P61088); type: functional;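 also: Dose-response confirmation in a TR-FRET assay detecting UBC13-driven polyubiquitin chain formation, inhibition measured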
T2 sequence (P61088 whole entry): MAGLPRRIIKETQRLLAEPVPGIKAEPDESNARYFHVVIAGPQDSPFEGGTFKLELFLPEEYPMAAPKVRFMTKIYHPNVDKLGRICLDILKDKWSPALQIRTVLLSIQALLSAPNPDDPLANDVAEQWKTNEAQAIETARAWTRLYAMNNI

[18] = cytotoxicity toward MDA-MB-231 breast cancer cells – cell-based, CellTiter-Glo luminescence, cherry-pick, cytotoxicity control for RAD54 inhibitor project, dose response (AID 651692); type: functional
[19] = molecular target: DNA repair and recombination protein RAD54-like (Homo sapiens, UniProt Q92698); test: RAD54 Holliday junction migration blockers – biochemical, fluorescence, cherry-picked samples, dose series, confirmation (AID 651657); type: functional
[20] = molecular target: T3, DNA repair protein RAD52 homolog (Homo sapiens, UniProt P43351); type: functional, biochemical
T3 sequence (P43351 whole entry): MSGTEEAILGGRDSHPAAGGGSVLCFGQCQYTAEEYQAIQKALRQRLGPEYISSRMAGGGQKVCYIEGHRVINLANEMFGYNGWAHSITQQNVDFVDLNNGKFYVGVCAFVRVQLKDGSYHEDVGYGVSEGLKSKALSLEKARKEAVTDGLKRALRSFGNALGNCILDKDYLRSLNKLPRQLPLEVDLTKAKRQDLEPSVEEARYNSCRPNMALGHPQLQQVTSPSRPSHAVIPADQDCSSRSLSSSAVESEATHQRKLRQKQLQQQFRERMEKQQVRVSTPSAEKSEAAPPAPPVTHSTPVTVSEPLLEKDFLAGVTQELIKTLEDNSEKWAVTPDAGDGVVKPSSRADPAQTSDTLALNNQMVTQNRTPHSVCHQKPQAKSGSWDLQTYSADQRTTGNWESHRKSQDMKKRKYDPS

[21] = A549 cell cytotoxicity, dose response, cytotoxicity control, plate reader, cherry-pick, antagonist series (AID 743412); type: functional, cell-based
[22] = toxicity toward HepG2 liver cells – cell-based, plate reader, cherry-pick, antagonist series, cytotoxicity control, dose response (AID 743416); type: functional
[23] = blockers of bursicon-stimulated LGR2 cAMP reporter – cell-based, HEK293, CRE-luciferase reporter, cherry pick, set 2, dose response (AID 743343); type: functional;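 also: transfected cells were stimulated with diluted bursicon conditioned medium after compound addition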
[24] = blockade of melanocortin 4 receptor signaling – cell-based, plate reader, cherry pick, counter-screen for LGR2 antagonist project, dose response (AID 743444); type: functional;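 also: transfected HEK 293 cells stimulated with alpha-MSH peptide; potency of inhibitors of the alpha-MSH evoked signal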
[25] = viability loss in HEK293 cells – cell-based, plate reader, cherry-picked samples, cytotoxicity control, dose response (AID 743446); type: functional
[26] = molecular target: Long-chain-fatty-acid--AMP ligase FadD28 (Mycobacterium tuberculosis, UniProt P9WQ59); test: Fluorescence polarization aasay to screen for inhibitors that compete for the binding of FadD28 to a bisubstrate Measured in Biochemical System Using Plate Reader - 2147-01_Inhibitor_Dose_CherryPick_Activity.; type: functional, Mycobacterium tuberculosis H37Rv
[27] = molecular target: Melanocortin receptor 4 (Homo sapiens, UniProt P32245); type: functional, cell-based;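 also: Cell-based assay with luminescence read-out, confirmatory dose-response testing for agonist activity of biased ligands at MC4R; human U2OS cells with tagged receptor and beta-arrestin; potency of agonists that increase receptor coupling to beta-arrestin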
[28] = tested on: CHO; test: CHO cell viability loss, potency – luminescence, cytotoxicity control for TLR9-MyD88 binding inhibitor project, dose response (AID 588339); type: functional, cell-based, hamster; settings: Cricetulus griseus;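 also: CHO cells stably coexpressing TLR9 and MyD88 fusions from primary screen; compound exposure lasted 48 hours before viability readout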
[29] = molecular target: Beta Lactamase (Pseudomonas aeruginosa, UniProt Q932Y6); test: BLA reporter interference, concentration series – BLA reporter cells, FRET fluorescence, artefact control for TLR9-MyD88 binding inhibitor project, dose response (AID 588341); type: cell-based;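 also: cell based assay in CHO-K1 cells stably expressing beta-lactamase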
[30] = molecular target: T4, Sentrin-specific protease 8 (Homo sapiens, UniProt Q96LD8); type: functional
T4 sequence (Q96LD8 whole entry): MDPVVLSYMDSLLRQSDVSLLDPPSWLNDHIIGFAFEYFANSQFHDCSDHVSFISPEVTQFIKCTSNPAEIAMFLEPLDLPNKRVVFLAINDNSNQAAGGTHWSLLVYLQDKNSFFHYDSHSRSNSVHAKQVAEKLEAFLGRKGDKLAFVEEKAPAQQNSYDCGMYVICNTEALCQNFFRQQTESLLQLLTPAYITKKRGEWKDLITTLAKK

[31] = molecular target: T4, Sentrin-specific protease 8; type: functional; remark: listed apart in the source
[32] = molecular target: Nuclear receptor subfamily 5 group A member 2 (Homo sapiens, UniProt O00482); type: functional, cell-based;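 also: HEK293T cells transfected with LRH-1 and a StAR promoter luciferase reporter; potency for inhibitors that lower LRH-1 driven reporter light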
[33] = molecular target: Steroidogenic factor 1 (Homo sapiens, UniProt Q13285); test: Counterscreen for inverse agonists of the liver receptor homolog-1 (LRH-1; NR5A2): Luminescence-based cell-based high throughput dose response assay to identify inverse agonists of the Steroidogenic Factor 1 Nuclear Receptor (SF1; NR5A1).; type: functional
[34] = nonselective StAR promoter luciferase inhibitors – cell-based, luminescence, luciferase reporter, counter-screen for LRH-1 inverse agonist project, dose response (AID 651969); type: functional
[35] = NIH-3T3 fibroblast cytotoxicity, dose response, cytotoxicity control, cell-based, fluorescence, Alamar Blue, secondary assay (AID 2327); type: functional;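 also: NIH-3T3 mouse fibroblasts cultured with fluconazole at 8 µg/mL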
[36] = viability of PTEN-deleted HCT116 cells – cell-based, HCT116 PTEN knockout, dose response (AID 1047); type: functional;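 also: HCT116 colon tumor cells with PTEN knocked out; cells exposed to compound for 60 hours before readout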
[37] = viability of HCT116 lacking mutant beta-catenin – cell-based, human colon tumor, dose response (AID 1045); type: functional;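 also: HCT116 colon tumor cells with beta catenin knocked out; cells exposed to compound for 60 hours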
[38] = HEK-293T viability loss after treatment – luminescence, T-cell screen hits, cytotoxicity control for TCR NF-kB inhibitor project, dose response (AID 489026); type: functional, cell-based;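 also: cells exposed to compound about 14 hours before the viability readout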
[39] = molecular target: Benomyl/methotrexate resistance protein (Candida albicans, UniProt P28873); test: Candida albicans Mdr1 pump inhibition curves – singleplex, Cherry Pick1 hits, dose response (AID 588608); type: functional
[40] = tested on: INS1; test: INS-1E survival protection against cytokine death – cell-based, luminescence, retest, dose response (AID 449756); type: functional; settings: Rattus norvegicus;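 also: cell death triggered by IL-1 beta plus TNF-alpha plus IFN-gamma mixture; protective hits raise ATP signal compared with cytokine alone wells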

Chain of Long-chain-fatty-acid--AMP ligase FadD28 (P9WQ59 whole entry): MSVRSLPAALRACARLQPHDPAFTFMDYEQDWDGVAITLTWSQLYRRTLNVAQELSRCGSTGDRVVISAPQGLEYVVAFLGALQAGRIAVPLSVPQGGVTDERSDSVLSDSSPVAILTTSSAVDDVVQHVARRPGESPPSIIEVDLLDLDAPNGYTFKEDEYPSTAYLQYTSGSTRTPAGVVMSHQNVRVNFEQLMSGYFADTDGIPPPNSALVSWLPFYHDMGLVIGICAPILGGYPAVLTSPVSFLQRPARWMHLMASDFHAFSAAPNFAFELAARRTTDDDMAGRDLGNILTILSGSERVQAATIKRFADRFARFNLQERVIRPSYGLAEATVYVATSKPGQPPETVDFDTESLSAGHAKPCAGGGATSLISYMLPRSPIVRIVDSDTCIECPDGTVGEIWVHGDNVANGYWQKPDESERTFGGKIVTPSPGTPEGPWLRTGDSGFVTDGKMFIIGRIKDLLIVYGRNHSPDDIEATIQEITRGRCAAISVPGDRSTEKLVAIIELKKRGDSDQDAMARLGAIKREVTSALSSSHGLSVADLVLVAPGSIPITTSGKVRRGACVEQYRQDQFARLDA
Chain of Protein Wnt-3a (P27467 whole entry): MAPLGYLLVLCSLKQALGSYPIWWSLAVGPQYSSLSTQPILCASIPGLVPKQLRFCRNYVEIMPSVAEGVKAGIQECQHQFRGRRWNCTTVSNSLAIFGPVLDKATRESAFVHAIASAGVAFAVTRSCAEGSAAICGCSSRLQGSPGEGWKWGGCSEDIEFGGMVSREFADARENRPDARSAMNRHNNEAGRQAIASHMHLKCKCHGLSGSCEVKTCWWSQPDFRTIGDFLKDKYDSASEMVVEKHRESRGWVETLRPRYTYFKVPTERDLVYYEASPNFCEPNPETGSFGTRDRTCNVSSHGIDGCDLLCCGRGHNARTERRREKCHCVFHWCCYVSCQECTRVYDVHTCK
Chain of Nuclear receptor subfamily 5 group A member 2 (O00482 whole entry): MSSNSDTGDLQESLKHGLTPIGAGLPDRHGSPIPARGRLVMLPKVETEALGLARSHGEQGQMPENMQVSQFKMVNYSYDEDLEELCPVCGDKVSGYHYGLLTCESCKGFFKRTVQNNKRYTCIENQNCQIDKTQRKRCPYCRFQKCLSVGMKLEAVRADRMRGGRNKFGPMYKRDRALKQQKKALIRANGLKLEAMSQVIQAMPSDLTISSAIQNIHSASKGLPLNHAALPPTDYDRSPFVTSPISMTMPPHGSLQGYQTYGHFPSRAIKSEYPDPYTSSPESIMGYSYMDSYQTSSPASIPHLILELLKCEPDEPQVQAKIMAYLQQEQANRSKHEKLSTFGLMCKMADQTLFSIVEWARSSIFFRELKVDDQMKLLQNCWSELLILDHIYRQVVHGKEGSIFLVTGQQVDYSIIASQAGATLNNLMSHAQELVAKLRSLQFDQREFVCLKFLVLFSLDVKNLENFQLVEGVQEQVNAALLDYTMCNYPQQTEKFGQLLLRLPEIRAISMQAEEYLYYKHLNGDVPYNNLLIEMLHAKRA
Chain of Melanocortin receptor 4 (P32245 whole entry, the tested form may be a part): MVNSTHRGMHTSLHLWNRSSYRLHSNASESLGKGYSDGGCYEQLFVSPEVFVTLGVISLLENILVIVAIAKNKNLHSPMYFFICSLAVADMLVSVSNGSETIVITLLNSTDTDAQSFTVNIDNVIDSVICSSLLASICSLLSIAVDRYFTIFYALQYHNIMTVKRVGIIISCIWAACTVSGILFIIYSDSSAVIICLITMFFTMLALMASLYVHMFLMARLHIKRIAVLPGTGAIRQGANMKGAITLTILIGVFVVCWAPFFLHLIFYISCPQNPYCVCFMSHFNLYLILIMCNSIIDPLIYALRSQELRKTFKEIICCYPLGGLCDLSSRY
Chain of Steroidogenic factor 1 (Q13285 whole entry): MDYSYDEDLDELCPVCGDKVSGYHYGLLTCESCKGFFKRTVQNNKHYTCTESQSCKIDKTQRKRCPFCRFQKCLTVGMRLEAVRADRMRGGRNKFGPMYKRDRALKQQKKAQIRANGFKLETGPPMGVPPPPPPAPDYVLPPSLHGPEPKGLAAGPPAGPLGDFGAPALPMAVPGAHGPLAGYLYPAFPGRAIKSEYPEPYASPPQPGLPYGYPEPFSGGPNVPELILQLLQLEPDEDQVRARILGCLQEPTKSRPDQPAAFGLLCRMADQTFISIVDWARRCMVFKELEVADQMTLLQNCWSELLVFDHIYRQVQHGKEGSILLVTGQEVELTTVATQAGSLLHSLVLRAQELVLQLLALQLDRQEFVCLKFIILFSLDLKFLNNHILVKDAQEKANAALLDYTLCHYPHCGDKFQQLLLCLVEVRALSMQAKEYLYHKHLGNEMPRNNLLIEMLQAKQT
Chain of Fructose-bisphosphate aldolase (P9WQA3 whole entry): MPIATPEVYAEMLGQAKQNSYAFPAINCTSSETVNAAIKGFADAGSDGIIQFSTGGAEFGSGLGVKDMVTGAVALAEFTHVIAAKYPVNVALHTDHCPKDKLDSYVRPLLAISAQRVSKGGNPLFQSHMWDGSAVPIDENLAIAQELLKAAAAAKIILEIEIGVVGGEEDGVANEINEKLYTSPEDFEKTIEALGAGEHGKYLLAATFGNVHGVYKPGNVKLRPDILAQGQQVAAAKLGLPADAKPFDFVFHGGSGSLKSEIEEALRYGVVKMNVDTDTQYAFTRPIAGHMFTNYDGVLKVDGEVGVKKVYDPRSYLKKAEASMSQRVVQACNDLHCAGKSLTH
Chain of Nucleotide-binding oligomerization domain-containing protein 2 (Q9HC29 whole entry, the tested form may be a part): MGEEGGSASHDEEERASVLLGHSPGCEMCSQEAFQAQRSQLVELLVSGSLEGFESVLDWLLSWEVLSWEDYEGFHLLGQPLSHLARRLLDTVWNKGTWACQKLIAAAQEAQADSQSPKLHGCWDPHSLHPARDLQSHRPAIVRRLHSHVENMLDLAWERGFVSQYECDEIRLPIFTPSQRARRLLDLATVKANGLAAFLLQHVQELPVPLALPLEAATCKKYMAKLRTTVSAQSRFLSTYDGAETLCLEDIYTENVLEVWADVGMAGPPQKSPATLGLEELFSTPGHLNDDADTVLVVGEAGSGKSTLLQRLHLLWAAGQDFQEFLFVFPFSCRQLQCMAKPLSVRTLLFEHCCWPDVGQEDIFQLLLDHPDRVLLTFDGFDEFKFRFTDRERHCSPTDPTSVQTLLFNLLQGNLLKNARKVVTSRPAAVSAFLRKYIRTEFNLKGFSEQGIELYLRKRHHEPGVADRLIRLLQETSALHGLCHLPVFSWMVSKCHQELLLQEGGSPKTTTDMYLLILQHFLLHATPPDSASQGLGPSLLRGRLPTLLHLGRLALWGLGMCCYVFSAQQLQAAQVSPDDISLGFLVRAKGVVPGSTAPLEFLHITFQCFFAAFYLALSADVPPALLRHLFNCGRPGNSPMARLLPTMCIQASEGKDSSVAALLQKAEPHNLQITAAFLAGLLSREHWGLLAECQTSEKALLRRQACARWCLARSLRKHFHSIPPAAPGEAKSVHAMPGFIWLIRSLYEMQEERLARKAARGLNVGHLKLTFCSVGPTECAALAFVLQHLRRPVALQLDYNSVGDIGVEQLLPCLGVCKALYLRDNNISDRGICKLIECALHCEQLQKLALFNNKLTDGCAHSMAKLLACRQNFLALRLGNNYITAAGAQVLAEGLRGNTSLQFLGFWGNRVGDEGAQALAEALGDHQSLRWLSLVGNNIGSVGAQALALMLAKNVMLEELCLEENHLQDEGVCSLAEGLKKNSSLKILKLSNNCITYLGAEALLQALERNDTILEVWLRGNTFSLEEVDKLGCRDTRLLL
Chain of Benomyl/methotrexate resistance protein (P28873 whole entry): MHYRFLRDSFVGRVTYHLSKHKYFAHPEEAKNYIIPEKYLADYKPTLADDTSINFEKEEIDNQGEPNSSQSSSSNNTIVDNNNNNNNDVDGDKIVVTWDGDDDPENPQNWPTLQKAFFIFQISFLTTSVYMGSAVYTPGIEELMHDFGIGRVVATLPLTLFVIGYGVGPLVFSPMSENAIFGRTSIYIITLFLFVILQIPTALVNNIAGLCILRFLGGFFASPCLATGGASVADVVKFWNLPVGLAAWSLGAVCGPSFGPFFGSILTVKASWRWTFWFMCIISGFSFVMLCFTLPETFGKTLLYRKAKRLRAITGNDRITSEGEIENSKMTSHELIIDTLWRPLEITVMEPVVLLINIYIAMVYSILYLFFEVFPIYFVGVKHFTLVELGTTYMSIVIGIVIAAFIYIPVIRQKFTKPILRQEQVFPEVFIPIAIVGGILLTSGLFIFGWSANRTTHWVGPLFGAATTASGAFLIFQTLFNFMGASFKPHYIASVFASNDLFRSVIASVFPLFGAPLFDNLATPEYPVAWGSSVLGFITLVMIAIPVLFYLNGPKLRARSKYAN
Chain of Beta Lactamase (Q932Y6 whole entry): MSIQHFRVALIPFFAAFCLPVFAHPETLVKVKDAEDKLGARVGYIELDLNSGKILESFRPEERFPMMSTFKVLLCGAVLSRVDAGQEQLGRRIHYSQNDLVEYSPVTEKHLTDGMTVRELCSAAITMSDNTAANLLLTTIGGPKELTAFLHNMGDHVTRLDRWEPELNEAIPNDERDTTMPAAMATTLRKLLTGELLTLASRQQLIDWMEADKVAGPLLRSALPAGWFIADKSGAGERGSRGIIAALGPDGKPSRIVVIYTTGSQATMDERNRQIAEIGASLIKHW

With CCN(CC)C(=O)c1sc2nc(-c3ccccn3)nc(O)c2c1C the AC50 [1] was 77.1 µM (active).
In the case of Cc1nn(C)cc1-c1cc(C(=O)O)c2ccccc2n1, the IC50 [2] is reported as 1.91 µM (active).
With CCc1cc(CNC(=O)c2ccc(OC)c(OC3CCN(C(C)C)CC3)c2)on1 the IC50 [3] was 0.316 µM (active), the IC50 [4] was 0.597 µM (active) and the IC50 [5] was 0.0189 µM (active).
For O=C(COC(=O)c1cccs1)Nc1nnc(-c2ccccc2)o1, the AC50 [1] was 102 µM (active).
With O=C1CCC(=O)c2ccc3c4c(ccc1c24)CC3 the IC50 [2] was 1.56 µM (active).
For COC(=O)[C@]12C[C@H](CC(=O)NCCc3ccccc3OC)C(=O)N(Cc3ccc4c(c3)OCO4)C1=C[C@H](COCc1ccccc1)O[C@@H]2C, the IC50 [6] was > 29.9 µM (inactive) and the EC50 [7] was > 29.9 µM (inactive).
For CC(=O)c1cn(Cc2ccccc2F)c2ccccc12, the EC50 [8] was 2.96 µM (active), the IC50 [9] was 5 µM (active) and the IC50 [10] was > 20 µM (inactive). The EC50 [11] was 4.05 µM (active), the IC50 [12] was > 20 µM (inactive) and the AC50 [13] was 2.96 µM (active). For the same compound, the AC50 [14] was 3.35 µM (active), the AC50 [15] was 9.56 µM (active) and the IC50 [16] was 0.491 µM (active).
With COc1ccc(NC(=O)c2ccc(-c3ccc(-c4noc(C)n4)cc3C)cc2)cc1N1CCN(C)CC1 the IC50 [17] was > 20 µM (inactive), the AC50 [18] was 14.4 µM (active) and the AC50 [19] was 79 µM (active). The AC50 [20] was 7.71 µM (active), the AC50 [21] was 8.17 µM (active) and the AC50 [22] was 8.08 µM (active). The AC50 [23] was 22.7 µM (active), the AC50 [24] was 27.6 µM (active) and the AC50 [25] was 14.5 µM (active).
For Cc1ccc(SCc2c(C(=O)N/N=C/c3ccoc3)nnn2-c2nonc2N)cc1, the AC50 [26] was > 100 µM (inactive).
In the case of COc1cccc(-c2cnc3c(NC(C)=O)cc(-c4ccsc4)cn23)c1, the EC50 [27] is reported as 26.2 µM (inactive).
In the case of O=C(Nc1ccc(S(=O)(=O)Nc2ccccn2)cc1)c1ccc(Cl)cc1Cl, the IC50 [3] is reported as 4.17 µM (active), the IC50 [4] is reported as 3.81 µM (active) and the IC50 [5] is reported as 12.8 µM (active).
In the case of O=C1Cc2ccccc2C(=O)N1c1ccccc1, the IC50 [28] is reported as > 49.7 µM (inactive), the IC50 [29] is reported as 3.97 µM (active) and the IC50 [30] is reported as > 100 µM (inactive). The IC50 [31] was 12.9 µM (active).
In the case of COc1cccc(NC(=O)Cn2nnc(-c3ccccc3N)n2)c1, the AC50 [26] is reported as 66.6 µM (active).
With O=C(Nc1ccc(S(=O)(=O)N2CCOCC2)cc1)c1cccc([N+](=O)[O-])c1 the IC50 [32] was 12 µM (inactive), the IC50 [33] was 2.2 µM (active) and the IC50 [34] was 35.9 µM (inactive).
In the case of C#CC[N+](C)(C)CCCCCCCCCCCC, the EC50 [35] is reported as > 160 µM (inconclusive), the EC50 [36] is reported as 2.9 µM (active) and the EC50 [37] is reported as 3.33 µM (active). The IC50 [38] was > 80 µM (inactive), the EC50 [39] was 0.312 µM (active) and the AC50 [40] was 4.61 µM (active). The IC50 [16] was 0.279 µM (active).
For COc1ccc(CCNC(=O)COC(=O)C23CC4CC(CC(Br)(C4)C2)C3)cc1, the IC50 [32] was 16.6 µM (inactive), the IC50 [33] was 4.45 µM (active) and the IC50 [34] was 35.9 µM (inactive).
For COc1ccc(/C=N/NC(=O)c2ccc(COc3ccccc3Cl)o2)c(OC)c1C, the EC50 [27] was > 89.2 µM (inactive).
